Results on 2 sequences are retold here after US20260191793A1, “HBV SPECIFIC EXOSOMES AND USES THEREOF” (priority 2022, published 2026).

Series [1] has as its system HBV replication in HepG2/2.2.15 cells. The experiment in a line: Antiviral efficiency of synthetic gRNA/Cas9 RNPs in HepG2/2.2.15 cells (HBsAg/HBeAg ELISA, HBV mRNA and HBV DNA real-time PCR). In kind it is cell-based, Hepatitis B virus (HBV). Set-up: reduction in HBsAg expression / reduction of HBV mRNA expression: concentration or dose not given beside the values. Particulars: for reduction of HBV mRNA expression: HepG2/2.2.15 cells, real-time PCR, vs gRNAc; for reduction in HBsAg expression: HepG2/2.2.15 supernatant, 3 days after nucleofection, ELISA, vs scrambled gRNAc; for antiviral efficacy among the 9 gRNAs tested: HepG2.2.15 cells. As to the method: The HepG2.2.15 Human Hepatoblastoma cell line (Cat #SCC249, MilliporeSigma, Burlington, MA) is a traditional HBV cellular model that is widely used for studying HBV infection and drug development. HepG2.2.15 cells display constitutive HBV RNA transcription and DNA replication, but a lesser detection of cccDNA by Southern blot and PCR detection. The HepG2/2.2.15 cells were cultured in DMEM (Cat #MT10013CV, Fisher Scientific, Waltham, MA) supplemented with 10% Fetal bovine serum, penicillin, and streptomycin (50 ug/ml each; Fisher Scientific) and maintained at 37° C. and 5% CO2 atmosphere. The Amaxa Cell Line Nucleofector Kit V (Lonza VCA-1003) was used to deliver gRNA/Cas9 into HepG2/2.2.15 cells stably expressing HBV. For each transfection, 160 μM gRNA and 160 μM tracrRNA were first incubated at 37° C. for 30 minutes, followed by adding 80 μM Cas9 protein and incubating at 37° C. for 15 minutes. Approximately 40 μM of the gRNA/Cas9 complex was transfected into HepG2/2.2.15 cells (5×10^5) following the manufacturer's instructions. After 72 hours, the culture supernatants were harvested to measure HBV antigens by ELISA, and the cell pellets were used to determine HBV DNA or mRNA levels by real-time-PCR.
The levels of HBsAg and HBeAg in the supernatants of cell cultures were determined by ELISA (Cat #KA0286 and NBP2-600029, Novus Biologicals, Littleton, CO) according to the manufacturer's protocol. The optical density of antigen levels was measured at 450 nm using a microplate spectrophotometer. The samples were run in triplicate, and the experiments were repeated at least three times.
Total RNA was extracted from the cell pellets by the RNeasy Mini kit (Cat #74104, QIAGEN, Germantown, MD), and 1 μg RNA was converted to cDNA using the Applied Biosystems High-Capacity cDNA Reverse Transcription Kit (Cat #43-688-14, ThermoFisher, Waltham, MA). Quantitative real-time PCR (real-time-qPCR) was performed using iTaq Universal SYBR Green Supermix (Cat #1725124, Bio-Rad, Hercules, CA). The PCR primers were: HBV mRNA forward, 5′-[…]-3′ (SEQ ID NO: 52), reverse, 5′-[…]-3′ (SEQ ID NO: 53); HBV pgRNA forward 5′-[…]-3′ (SEQ ID NO: 54), reverse 5′-[…]-3′ (SEQ ID NO: 55); and GAPDH forward 5′-[…]-3′ (SEQ ID NO: 56), reverse 5′-[…]-3′ (SEQ ID NO: 57). The gene expression levels were determined by the […] method and values were normalized to GAPDH expression as an internal control.
(§1) Total and protein-free HBV DNAs were extracted from whole cell lysate using the Hirt DNA method according to a previously published protocol. For HBV cccDNA analysis, the protein-free DNA was treated with 10 units of T5 exonuclease (NEB) at 37° C. for 30 min, followed by 95° C. for 5 min, and diluted 4-fold with nuclease-free water. Next, the cccDNA was cleaned with a DNA clean and concentrator kit (ZYMO Research, Irvine, CA) and used for PCR. HBV total DNA and cccDNA were analyzed by real-time PCR using a TaqMan PCR assay. The primers and probe used to amplify HBV total DNA were: HBV total DNA forward: 5′-[…]-3′ (SEQ ID NO: 58), reverse 5′-[…]-3′ (SEQ ID NO: 59), and internal probe: 5′-FAM-[…]-TAMRA-3′ (SEQ ID NO: 60). The primers and probe used to amplify HBV cccDNA (Genotype D, subtype ayw) were: forward: 5′-[…]-3′ (SEQ ID NO: 61), reverse 5′-[…]-3′ (SEQ ID NO: 62), and internal probe 5′-FAM-[…]-TAMRA-3′ (SEQ ID NO: 63). The PCR reactions were performed in 20 μl volumes and contained 2 μl DNA. The PCR conditions were: 95° C. for 10 min, followed by 45 cycles of 95° C. for 15 s and 64° C. for 30 s. The DNA levels were determined by the […] method and values were normalized to the control group.
Because the hepatoma cell line HepG2/2.2.15 is a traditional HBV cellular model used to test the efficacy and cytotoxicity of anti-HBV drugs, the synthetic gRNA/Cas9 RNPs were tested for their antiviral efficiency in HepG2/2.2.15 cells. […]
For orientation: An ELISA detects its analyte on a solid surface through an enzyme-linked reagent.

The subject of a further series is HBV in HepG2-NTCP cells. Briefly: Infection of HepG2-NTCP cells with supernatants of gRNA/Cas9-transfected HepDE19 cells (infectious HBV particles). It is filed as cell-based, Hepatitis B virus (HBV). The note with it: HepG2-NTCP infected with supernatants of transfected HepDE19 cells, vs supernatants of gRNAc-transfected cells, qPCR. As to the method: To characterize the effects of synthetic gRNA5/Cas9 and gRNA9/Cas9 on HBV replication, the ability of HBV particles derived from HepDE19 cells that have been transfected with gRNA5, gRNA9, or gRNAc RNPs for 3 days to infect HepG2-NTCP cells was assessed. HepG2-NTCP cells were infected for 6 days with supernatants harvested from HepDE19 cells. Genomic DNA was isolated from HepG2-NTCP cells and used for qPCR quantification of HBV DNA.
HBV infectious particles were harvested from the supernatants of gRNA/Cas9-treated HepDE19 cells and used for the infection of HepG2-NTCP cells following a previously published method. Briefly, the supernatants of gRNA RNP-treated HepDE19 cells were harvested and concentrated using a PEG concentration kit (Cat #ab102538, Abcam, Waltham, MA). For HBV infection, 2.5×10^5 HepG2-NTCP cells were seeded in a 12-well plate and mixed with 10 μl concentrated HBV supernatants in 1 ml hepatocyte maintenance medium (HMM) (with 8% PEG8000 and 5% DMSO) at 37° C. for 16 h. The culture media were changed daily with fresh HMM. After 8 days, the cells were harvested and HBV DNA and cccDNA levels were determined as described below.
as §1
Sodium taurocholate cotransporting polypeptide (NTCP) is a functional receptor for human HBV. The human hepatoma cell line HepG2 is not susceptible to HBV infection due to lack of NTCP; however, HepG2 cells transfected with NTCP expression plasmids (HepG2-NTCP) are susceptible to natural HBV infection. To further characterize the inhibitory effects of the synthetic gRNA/Cas9 RNPs on HBV replication, HepG2-NTCP cells were incubated with supernatants collected from gRNA/Cas9 RNP-transfected HepDE19 cell culture (after 4 days). Genomic DNA was isolated from HepG2-NTCP cells on day 8 after HBV infection and used for the assessment of HBV replication.

For “GTTATCGCTGGATGTGTCTGNGG (guide GUUAUCGCUGGAUGUGUCUGNGG; complexed with Cas9 protein, chemistry not fully specified) [gRNA5, tested as synthetic gRNA/Cas9 RNP]”, in series [1], the “reduction of HBV mRNA expression” value was ~ 50%; the “reduction in HBsAg expression” value is on record as 50%; the “antiviral efficacy among the 9 gRNAs tested” value was “most specific and potent antiviral efficacy”. In the series on HBV in HepG2-NTCP cells, the “HBV DNA in HepG2-NTCP cells” value is reported as “significantly lower” and the “HBV cccDNA in HepG2-NTCP cells” value is reported as “remarkably lower”. For the same sequence, in the series with HBV in HepG2-NTCP cells (listed as gRNA5/Cas9), the “HBV DNA in HepG2-NTCP cells” value is listed as “significantly fewer copies” and the “HBV cccDNA in HepG2-NTCP cells” value was “significantly fewer copies”.
On to GGTCTCCATGCGACGTGCAGNGG [gRNA9], for which, in series [1], the “reduction of HBV mRNA expression” value is ~ 50%; the “reduction in HBsAg expression” value is 50%; the “antiviral efficacy among the 9 gRNAs tested” value is “most specific and potent antiviral efficacy”. Also, in the series on HBV in HepG2-NTCP cells, the “HBV DNA in HepG2-NTCP cells” value is “significantly lower” and the “HBV cccDNA in HepG2-NTCP cells” value was “remarkably lower”. In the series on HBV in HepG2-NTCP cells (listed as gRNA9/Cas9), the “HBV DNA in HepG2-NTCP cells” value is on record as “significantly fewer copies” and the “HBV cccDNA in HepG2-NTCP cells” value is listed as “significantly fewer copies”.
